The text below walks through data of ChEMBL document CHEMBL6087436, “The novel β-hairpin antimicrobial peptide D-G(RF)3 demonstrates exceptional antibacterial efficacy” (Eur J Med Chem, 2025).

Data set [1] deals with Cell membrane. As to the kind of experiment: Induction of Cytoplasmic membrane depolarization in Escherichia coli at 1 to 4 times MIC measured for every 10 mins by DiSC3(5) dye based fluorescence method. It is filed as subcellular.
The subject of data set [2] is Escherichia coli. As to the kind of experiment: Synergistic antibacterial activity against Escherichia coli assessed as fractional inhibitory concentration index in presence of kanamycin incubated for 18 hrs by checkerboard method. Type of data set: functional.
Data set [3] has as its system Cell membrane. In words: Induction of cell membrane permeability in Staphylococcus aureus assessed as bacterial collapse at 2 times MIC by SEM analysis. It is filed as subcellular.
In data set [4] the test system is Escherichia coli. In words: Inhibition of biofilm formation in Escherichia coli ATCC 25922 at 1 uM incubated for 24 hrs by crystal violet staining based analysis. It is filed as functional, organism-based.
Data set [5] concerns Cell membrane. In words: Induction of Inner membrane permeabilization in Escherichia coli ML-35 ATCC […] at 4 times MIC measured every 5 mins for 120 mins by ONPG dye based assay. It is filed as subcellular.
In data set [6] the test system is Cell membrane. In words: Induction of cell membrane permeability in Staphylococcus aureus assessed as bacterial aggregation into clusters at 2 times MIC measured after 2 hrs by SEM analysis. It is filed as subcellular.
Data set [7] relates to Klebsiella pneumoniae. As to the kind of experiment: In vivo antibacterial activity against Klebsiella pneumoniae ATCC 700603 infected in male Balb/c mouse lung infection model assessed as reduction in alveoli expansion at 10 mg/kg, ip measured after 24 hrs by H and E staining based analysis. Type of data set: functional, organism-based.
Data set [8] deals with Klebsiella pneumoniae. As to the kind of experiment: In vivo antibacterial activity against Klebsiella pneumoniae ATCC 700603 infected in male Balb/c mouse lung infection model assessed as reduction in serous exudation of alveolar cavities at 10 mg/kg, ip measured after 24 hrs by H and E staining based analysis. It is filed as functional, organism-based.
The subject of data set [9] is Escherichia coli. As to the kind of experiment: Antimicrobial activity against Escherichia coli at 2 times MIC in presence of LPS preincubated for 1 hr followed by bacterial addition and measured after 6 hrs by LPS competitive inhibition assay. It is filed as functional, organism-based.
The test system of data set [10] is Cell membrane. As to the kind of experiment: Induction of Cytoplasmic membrane depolarization in Staphylococcus aureus at 4 times MIC measured for every 10 mins by DiSC3(5) dye based fluorescence method. It is filed as subcellular.
The subject of data set [11] is Klebsiella pneumoniae. In words: Bactericidal activity against Klebsiella pneumoniae ATCC 700603 assessed as bacterial eradication by measuring bacterial counts at 1 times MIC measured after 30 mins by Time killing assay relative to control. Type of data set: functional. The conditions noted are these: 0.5 h.
In data set [12] the test system is Staphylococcus aureus. As to the kind of experiment: Antibacterial activity against Staphylococcus aureus ATCC 25923 in presence of 1 mM MgCl2. Type of data set: functional, organism-based.
Data set [13] relates to Cell membrane. In words: Induction of cell membrane permeability in Staphylococcus aureus assessed as bacterial dissolution at 2 times MIC measured after 30 mins by SEM analysis. Type of data set: subcellular.
The nature of data set [14]: Acute toxicity in male balb/c mouse assessed as mortality at 25 to 50 mg/kg, ip measured after 50 mins by karber method. Particulars: in vivo, dose 25-50 mg/kg. Type of data set: organism-based.
For data set [15], the system named is Staphylococcus aureus. As to the kind of experiment: Synergistic antibacterial activity against Staphylococcus aureus assessed as fractional inhibitory concentration index in presence of polymyxin B incubated for 18 hrs by checkerboard method. It is filed as functional.
Data set [16] deals with Cell membrane. In words: Induction of cell membrane permeability in Staphylococcus aureus assessed as bacterial adhesion at 2 times MIC by SEM analysis. It is filed as subcellular.
Data set [17] relates to Cell membrane. In words: Induction of Outer membrane permeabilization in Escherichia coli at 1 times MIC by NPN-dye based fluorescence analysis. Type of data set: subcellular.
The nature of data set [18]: Acute toxicity in male balb/c mouse assessed as renal intracellular bleeding at 45.33 mg/kg, ip by H and E staining based analysis. It is filed as organism-based. The conditions noted are these: in vivo.
For data set [19], the system named is Pseudomonas aeruginosa. As to the kind of experiment: Synergistic antibacterial activity against Pseudomonas aeruginosa assessed as fractional inhibitory concentration index in presence of polymyxin B incubated for 18 hrs by checkerboard method. Type of data set: functional.
Data set [20] deals with Cell membrane. In words: Induction of cell membrane permeability in Staphylococcus aureus assessed as bacterial aggregation at 2 times MIC measured after 30 mins by SEM analysis. Type of data set: subcellular.
Data set [21] deals with Cell membrane. In words: Induction of cell membrane permeability in Staphylococcus aureus assessed as bacterial aggregation into clusters at 2 times MIC measured after 30 mins by SEM analysis. Type of data set: subcellular.
A short description of data set [22]: Acute toxicity in male balb/c mouse assessed as lethal dose at ip administration. Type of data set: organism-based. The conditions noted are these: in vivo.
Data set [23] deals with Cell membrane. As to the kind of experiment: Induction of cell membrane permeability in Staphylococcus aureus assessed as bacterial dissolution at 2 times MIC measured after 2 hrs by SEM analysis. Type of data set: subcellular.
Data set [24] relates to Pseudomonas aeruginosa. As to the kind of experiment: Antibacterial activity against Pseudomonas aeruginosa ATCC 27853 in presence of 4.5 mM KCl. Type of data set: functional, organism-based.
Data set [25] deals with Cell membrane. As to the kind of experiment: Induction of Inner membrane permeabilization in Escherichia coli ML-35 ATCC […] measured every 5 mins for 120 mins by ONPG dye based assay. It is filed as subcellular.
Data set [26] can be described thus: Acute toxicity in male balb/c mouse assessed as hepatocyte necrosis at 45.33 mg/kg, ip by H and E staining based analysis. Type of data set: organism-based. Particulars: in vivo.
In data set [27] the test system is Cell membrane. As to the kind of experiment: Induction of cell membrane permeability in Staphylococcus aureus assessed as bacterial aggregation into breakage at 2 times MIC measured after 30 mins by SEM analysis. It is filed as subcellular.
For data set [28], the system named is Staphylococcus aureus. As to the kind of experiment: Synergistic antibacterial activity against Staphylococcus aureus assessed as fractional inhibitory concentration index in presence of ciprofloxacin incubated for 18 hrs by checkerboard method. Type of data set: functional.
Data set [29] relates to Cell membrane. As to the kind of experiment: Induction of cell membrane permeability in Staphylococcus aureus assessed as bacterial aggregation into breakage at 2 times MIC measured after 2 hrs by SEM analysis. It is filed as subcellular.
In data set [30] the test system is Klebsiella pneumoniae. In words: Bactericidal activity against Klebsiella pneumoniae ATCC 700603 assessed as bacterial eradication by measuring bacterial counts at 2 times MIC measured after 15 mins by Time killing assay relative to control. Type of data set: functional. The conditions noted are these: 0.25 h.
In data set [31] the test system is Cell membrane. In words: Induction of cell membrane permeability in Staphylococcus aureus assessed as rupture of bacteria with leaked contents at 2 times MIC measured after 30 mins by SEM analysis. It is filed as subcellular.
For data set [32], the system named is Staphylococcus aureus. As to the kind of experiment: Additive antibacterial activity against Staphylococcus aureus assessed as fractional inhibitory concentration index in presence of polymyxin B incubated for 18 hrs by checkerboard method. It is filed as functional.
Data set [33] relates to Cell membrane. In words: Induction of cell membrane permeability in Staphylococcus aureus assessed as agglutination with leaked contents at 2 times MIC measured after 2 hrs by SEM analysis. Type of data set: subcellular.
The nature of data set [34]: Acute toxicity in male balb/c mouse assessed as hepatocyte necrosis at 81.28 mg/kg, ip by H and E staining based analysis. It is filed as organism-based. Particulars: in vivo.
Data set [35] can be described thus: Acute toxicity in male balb/c mouse assessed as renal necrosis at 81.28 mg/kg, ip by H and E staining based analysis. It is filed as organism-based. Particulars: in vivo.
In data set [36] the test system is Escherichia coli. As to the kind of experiment: Additive antibacterial activity against Escherichia coli assessed as fractional inhibitory concentration index in presence of kanamycin incubated for 18 hrs by checkerboard method. Type of data set: functional.
The subject of data set [37] is Klebsiella pneumoniae. As to the kind of experiment: Bactericidal activity against Klebsiella pneumoniae ATCC 700603 assessed as bacterial eradication by measuring bacterial counts at 2 times MIC measured after 30 mins by Time killing assay relative to control. It is filed as functional. The conditions noted are these: 0.5 h.
The nature of data set [38]: Acute toxicity in male balb/c mouse assessed as mortality at 63.2 to 100 mg/kg, ip measured after 7 days by karber method. Type of data set: organism-based. Particulars: in vivo, 168 h, dose 63.2-100 mg/kg, time 7 day.
The subject of data set [39] is Escherichia coli. In words: Antimicrobial activity against Escherichia coli at 2 times MIC in presence of LPS at 64 uM preincubated for 1 hr followed by bacterial addition and measured after 6 hrs by LPS competitive inhibition assay. It is filed as functional, organism-based. Particulars: time 7.0 hrs.
The test system of data set [40] is Cell membrane. As to the kind of experiment: Induction of Inner membrane permeabilization in Escherichia coli ML-35 ATCC […] at 2 times MIC measured every 5 mins for 120 mins by ONPG dye based assay. It is filed as subcellular.

Activity calls are given as the source filed them. The rule behind the calls is not given here.

Consider `N=C(N)NCCC[C@@H](NC(=O)CNC(=O)[C@H]1CCCN1C(=O)[C@@H](CCCNC(=N)N)NC(=O)[C@@H](Cc1ccccc1)NC(=O)[C@@H](CCCNC(=N)N)NC(=O)[C@@H](Cc1ccccc1)NC(=O)[C@@H](CCCNC(=N)N)NC(=O)[C@H](N)Cc1ccccc1)C(=O)N[C@H](Cc1ccccc1)C(=O)N[C@H](CCCNC(=N)N)C(=O)N[C@H](Cc1ccccc1)C(=O)N[C@H](CCCNC(=N)N)C(=O)N[C@H](Cc1ccccc1)C(N)=O`, for which the outcome in the data set on Cell membrane [1], with Cell membrane [3], in the data set on Cell membrane [5], with Cell membrane [6], in the data set on Klebsiella pneumoniae [7] and with Klebsiella pneumoniae [8] was Active. Further, the outcome in the data set on Staphylococcus aureus [12], in the data set with Cell membrane [13], in the data set on Cell membrane [16], with Cell membrane [20], in the data set on Cell membrane [21] and in the data set on Cell membrane [23] was Active. For the same molecule, the result with Pseudomonas aeruginosa [24], with Cell membrane [27] and with Cell membrane [29] was Active. For the same molecule, the “fractional inhibitory concentration index (FICI)” value was determined as 0.313 in the data set on Escherichia coli [2], 0.375 in the data set with Staphylococcus aureus [15], 0.313 in the data set with Pseudomonas aeruginosa [19] and 0.313 with Staphylococcus aureus [28]. In addition, the inhibition result in the data set on Escherichia coli [4] was “Active”. Besides, the outcome in the data set with Escherichia coli [9] was inactive. The Activity result with Cell membrane [10] was “Active; Comparable Depolarization To Valinomycin Was Observed”; with Klebsiella pneumoniae [11], 100%; in [14], “Toxic”; in the data set with Cell membrane [17] it was “Active; Comparable Permeability To Polymyxin B Was Observed”; in data set [18], “Toxic”; in the data set on Cell membrane [25], “Dose-dependent-effect”. The Activity result is recorded as “Toxic” in [26] and 100% in the data set with Klebsiella pneumoniae [30]. Moreover, the LD50 (usually the dose at which mortality reaches 50%) in data set [22] was determined as 45.3 mg/kg.
Consider `N=C(N)NCCC[C@H](NC(=O)CNC(=O)[C@H]1CCCN1C(=O)[C@H](CCCNC(=N)N)NC(=O)[C@H](Cc1ccccc1)NC(=O)[C@H](CCCNC(=N)N)NC(=O)[C@H](Cc1ccccc1)NC(=O)[C@H](CCCNC(=N)N)NC(=O)[C@@H](N)Cc1ccccc1)C(=O)N[C@@H](Cc1ccccc1)C(=O)N[C@@H](CCCNC(=N)N)C(=O)N[C@@H](Cc1ccccc1)C(=O)N[C@@H](CCCNC(=N)N)C(=O)N[C@@H](Cc1ccccc1)C(N)=O`, for which the outcome with Cell membrane [31], in the data set on Cell membrane [33], with Klebsiella pneumoniae [7], in the data set with Klebsiella pneumoniae [8], in the data set with Staphylococcus aureus [12] and in the data set on Pseudomonas aeruginosa [24] was Active. In addition, in the data set on Cell membrane [40], the result was Active. The “fractional inhibitory concentration index (FICI)” value in the data set on Staphylococcus aureus [32] worked out at 0.625; with Escherichia coli [36] it was 0.563. Also, the Activity result in data set [34] was “Toxic”; in data set [35], “Toxic”; in the data set with Klebsiella pneumoniae [37], 100%; in [38] it was “Toxic”; in the data set on Cell membrane [25] it was “Dose-dependent-effect”. For the same molecule, in data set [22], the LD50 came to 81.3 mg/kg. Further, in the data set on Escherichia coli [39], the outcome was inactive.
